According to ChEMBL document CHEMBL1127505, “Structure-activity relationships of new taxoids derived from 14 beta-hydroxy-10-deacetylbaccatin III” (J Med Chem, 1994):
pIC50: −log10 of the molar value.

Legend:
Format in all cases: functional, cell-based
A549 = assay: In vitro cytotoxicity against human non-small cell lung carcinoma A549
A121 = assay: In vitro cytotoxicity against human ovarian carcinoma […]
HT-29 = assay: In vitro cytotoxicity against human colon carcinoma HT-29
MCF7 [1] = assay: In vitro cytotoxicity against human mammary carcinoma cells 180 fold resistant to adriamycin MCF7-R
MCF7 [2] = assay: In vitro cytotoxicity against human mammary carcinoma MCF-7

| Structure (SMILES) | pIC50 (A549) | pIC50 (A121) | pIC50 (HT-29) | pIC50 (MCF7 [1]) | pIC50 (MCF7 [2]) |
| --- | --- | --- | --- | --- | --- |
| CC(=O)O[C@@]12CO[C@@H]1C[C@H](O)[C@@]1(C)C(=O)[C@H](O)C3=C(C)[C@@H](OC(=O)[C@H](O)[C@@H](NC(=O)OC(C)(C)C)c4ccccc4)[C@@H]4OC(=O)O[C@]4([C@@H](OC(=O)c4ccccc4)C12)C3(C)C (some centres not stated) | 8.68 | 8.21 | 8.74 | 6.27 | 8.74 |
| CC(=O)O[C@@]12CO[C@@H]1C[C@H](O)[C@@]1(C)C(=O)[C@H](O)C3=C(C)[C@@H](O)[C@H](OC(=O)[C@@H](O)C(NC(=O)OC(C)(C)C)c4ccccc4)[C@@](O)([C@@H](OC(=O)c4ccccc4)C12)C3(C)C (some centres not stated) | 7.51 | 7.10 | 7.30 | < 6.00 | 7.59 |
| CC(=O)O[C@H]1C(=O)[C@@]2(C)[C@H]([C@H](OC(=O)c3ccccc3)[C@]3(O)C[C@H](OC(=O)[C@H](O)[C@@H](NC(=O)c4ccccc4)c4ccccc4)C(C)=C1C3(C)C)[C@]1(OC(C)=O)CO[C@@H]1C[C@@H]2O [PACLITAXEL] |  | 8.21 | 8.49 |  |  |
| CC(=O)O[C@@]12CO[C@@H]1C[C@H](O)[C@@]1(C)C(=O)[C@H](O)C3=C(C)[C@@H](OC(=O)[C@H](O)[C@@H](NC(=O)c4ccccc4)c4ccccc4)[C@@H]4OC(=O)O[C@]4([C@@H](OC(=O)c4ccccc4)C12)C3(C)C (some centres not stated) | 7.48 | 6.98 | 7.62 | < 6.00 | 7.96 |
| CC(=O)O[C@@]12CO[C@@H]1C[C@H](O)[C@@]1(C)C(=O)[C@H](O)C3=C(C)[C@@H](O)[C@H](OC(=O)[C@@H](O)C(NC(=O)c4ccccc4)c4ccccc4)[C@@](O)([C@@H](OC(=O)c4ccccc4)C12)C3(C)C (some centres not stated) | 6.29 | 5.98 | 6.61 | < 6.00 | 6.57 |
